Experimental data from patent US4559323A, “A41030 Antibiotics” (Eli Lilly and Company, priority 1984, dated 1985).
Values after ≈ are worked out from the molar mass of the structure shown. Read-outs that look alike come from different tables or passages of the source.

Columns and labels:
Streptococcus pyogenes = experiment: Agar-dilution MIC; type: cell-based; details: 24 hours, Streptococcus pyogenes C203
Text: (§1) The agar-dilution procedure described by the International Collaborative study (ICS) group was used to determine the minimum inhibitory concentrations (MIC's).

[1] = system: Streptococcus sp. (Group D); experiment: Agar-dilution MIC; type: cell-based; details: 24 hours
Text: as §1

[2] = Electrometric titration (pKa); type: physicochemical; details: electrometric titration in 66% dimethylformamide in water
[3] = system: Peptococcus asaccharolyticus; experiment: Agar-dilution MIC (anaerobes); type: cell-based; details: Table 15
Protocol: (§2) The MIC values were determined by the agar-dilution method, and are recorded in Table 15, which follows.

Salmonella typhi = experiment: Agar-dilution MIC; type: cell-based; details: Table 17, 24 hours
[4] = system: Peptostreptococcus anaerobius; experiment: Agar-dilution MIC (anaerobes); type: cell-based
Bacteroides vulgatis [5] = experiment: Agar-dilution MIC (anaerobes); type: cell-based; details: Table 12; 24-hour; B. vulgatis 1563
Text: (§3) The A41030 antibiotics, factors A, B, and C, are active against a genus of anaerobic bacteria identified as Bacteroides sp., the 24-hour MIC values being determined by the agar-dilution method, and are set forth in Table 12, which follows.

Bacteroides corrodens = experiment: Agar-dilution MIC (anaerobes); type: cell-based; details: Table 12; 24-hour; B. corrodens 1874
Text: as §3

Peptococcus prevoti = experiment: Agar-dilution MIC (anaerobes); type: cell-based
Clostridium septicum = experiment: Agar-dilution MIC (anaerobes); type: cell-based; details: Table 14; Clostridium septicum 1128
[6] = system: Peptostreptococcus intermedius; experiment: Agar-dilution MIC (anaerobes); type: cell-based
Bacteroides vulgatis [7] = experiment: Agar-dilution MIC (anaerobes); type: cell-based; details: Table 14; Bacteroides vulgatis 1211
S. pyogenes [8] = experiment: Experimental bacterial infection in mice, subcutaneous ED50; type: in vivo; details: two doses subcutaneously
Protocol: (§4) All of the A41030 factors tested have shown in vivo antimicrobial activity against experimental bacterial infections. When two doses of test compound were administered subcutaneously to mice in illustrative infections, the activity observed is measured as an ED50 value [effective dose in mg./kg. to protect fifty percent of the test animals: See Warren Wick, et al., J. Bacteriol. 81, 233-235 (1961)].

S. pneumoniae = experiment: as above; type: in vivo; details: two doses subcutaneously
Protocol: as §4

Staph. aureus = experiment: as above; type: in vivo; details: two doses subcutaneously
Protocol: as §4

B. thetaiotaomicron = type: cell-based
Text: as §1

Clostridium difficile = type: cell-based; details: Table 14; Clostridium difficile 2994
S. pyogenes [9] = experiment: In vivo oral activity against S. pyogenes in mice
Hemophilus influenzae = experiment: Agar-dilution MIC; type: cell-based; details: 24 hours
Bacteroides fragilis = experiment: Agar-dilution MIC (anaerobes); type: cell-based
Text: as §1

Fusobacterium symbiosum = experiment: Agar-dilution MIC (anaerobes); type: cell-based; details: Table 14; Fusobacterium symbiosum 1470
Clostridium perfringens = type: cell-based; details: Table 14; Clostridium perfringens 81
[10] = system: Fusobacterium necrophorum; experiment: Agar-dilution MIC (anaerobes); type: cell-based; details: Table 14; Fusobacterium necrophorum 6054A
Solubility in solvents = type: physicochemical; details: solvents as named
Text: The seven antibiotic factors are recovered from the fermentation and are obtained as a mixture, the A41030 complex. It will be recognized that the ratio of the factors in the A41030 complex will vary, depending upon the fermentation conditions used. The individual factors […], and G are separated and isolated as individual compounds, as hereinafter described.

Pc. constellatus = experiment: Agar-dilution MIC (anaerobes); type: cell-based, Peptococcus constellatus; details: Table 15; Pc. constellatus 1468
Protocol: as §2

Q: Which MIC (Streptococcus pyogenes; Table 17) does the source give for `N[C@H]1C(=O)N[C@@H]2Cc3ccc(c(Cl)c3)Oc3cc4cc(c3O)Oc3ccc(cc3Cl)[C@@H](O)[C@@H]3NC(=O)C(NC(=O)[C@@H]4NC(=O)[C@@H](NC2=O)c2cc(O)cc(c2)Oc2cc1ccc2O)c1ccc(O)c(c1)-c1c(O)cc(O)cc1[C@@H](C(=O)O)NC3=O` [A41030 factor B] here?
A: 0.25 µg/mL (≈ 0.209 µM)

Q: And the MIC (Streptococcus pyogenes; Table 18)?
A: 0.125 µg/mL (≈ 0.104 µM)

Q: And the MIC ([1]; Table 17, Streptococcus sp. Group D 9960)?
A: 1 µg/mL (≈ 0.834 µM)

Q: And the MIC ([1]; Table 17, Streptococcus sp. Group D X66)?
A: 1 µg/mL (≈ 0.834 µM)

Q: And the MIC ([1]; Table 18, Streptococcus sp. Group D 2041)?
A: 0.5 µg/mL (≈ 0.417 µM)

Q: And the MIC ([1]; Table 18, Streptococcus sp. Group D 2058)?
A: 0.5 µg/mL (≈ 0.417 µM)

Q: And the MIC ([1]; Table 18, Streptococcus sp. Group D 8043)?
A: 0.25 µg/mL (≈ 0.209 µM)

Q: And the MIC ([1]; Table 18, Streptococcus sp. Group D 9901)?
A: 1 µg/mL (≈ 0.834 µM)

Q: What about the MIC ([1]; Table 18, Streptococcus sp. Group D 9960) of the same compound?
A: 0.5 µg/mL (≈ 0.417 µM)

Q: What about the MIC ([1]; Table 18, Streptococcus sp. Group D 12253F) of the same compound?
A: 0.5 µg/mL (≈ 0.417 µM)

Q: And the MIC ([1]; Table 18, Streptococcus sp. Group D Mx161)?
A: 0.25 µg/mL (≈ 0.209 µM)

Q: What about the MIC ([1]; Table 18, Streptococcus sp. Group D X66) of the same compound?
A: 0.25 µg/mL (≈ 0.209 µM)

Q: What about the “pKa, first titratable group” value [2] of the same compound?
A: about 5.6

Q: And the “pKa, second titratable group” value [2]?
A: ~7.5

Q: And the MIC ([3]; Pc. asaccharolyticus 1302)?
A: 0.125 µg/mL (≈ 0.104 µM)

Q: What about the MIC ([3]; Pc. asaccharolyticus 1344) of the same compound?
A: 0.5 µg/mL (≈ 0.417 µM)

Q: And the MIC (Salmonella typhi; Salmonella typhi 1335)?
A: > 128 µg/mL

Q: And the MIC (Salmonella typhi; Salmonella typhi X514)?
A: > 128 µg/mL

Q: And the MIC ([4]; Table 14, Peptostreptococcus anaerobius 1428)?
A: ≤ 0.25 µg/mL

Q: What about the MIC ([4]; Table 15, Ps. anaerobius 8) of the same compound?
A: 0.25 µg/mL (≈ 0.209 µM)

Q: What about the MIC ([4]; Table 15, Ps. anaerobius 52) of the same compound?
A: 0.5 µg/mL (≈ 0.417 µM)

Q: And the MIC ([4]; Table 15, Ps. anaerobius 59)?
A: 0.25 µg/mL (≈ 0.209 µM)

Q: And the MIC ([4]; Table 15, Ps. anaerobius 1418)?
A: 0.06 µg/mL (≈ 0.05 µM)

Q: And the MIC ([4]; Table 15, Ps. anaerobius 1428)?
A: 0.25 µg/mL (≈ 0.209 µM)

Q: And the MIC ([4]; Table 15, Ps. anaerobius 1451)?
A: 0.25 µg/mL (≈ 0.209 µM)

Q: And the MIC ([4]; Table 15, Ps. anaerobius 1477)?
A: 0.125 µg/mL (≈ 0.104 µM)

Q: And the MIC (Bacteroides vulgatis [5])?
A: 32 µg/mL (≈ 26.7 µM)

Q: And the MIC (Bacteroides corrodens)?
A: 32 µg/mL (≈ 26.7 µM)

Q: And the MIC (Peptococcus prevoti; Table 14, Peptococcus prevoti 1281)?
A: ≤ 0.25 µg/mL

Q: What about the MIC (Peptococcus prevoti; Table 15, Pc. prevoti 1281) of the same compound?
A: 0.5 µg/mL (≈ 0.417 µM)

Q: And the MIC (Peptococcus prevoti; Table 15, Pc. prevoti 1293)?
A: 0.25 µg/mL (≈ 0.209 µM)

Q: What about the MIC (Peptococcus prevoti; Table 15, Pc. prevoti 1407) of the same compound?
A: 0.5 µg/mL (≈ 0.417 µM)

Q: And the MIC (Clostridium septicum)?
A: 4 µg/mL (≈ 3.34 µM)

Q: What about the MIC ([6]; Table 14, Peptostreptococcus intermedius 1264) of the same compound?
A: 0.5 µg/mL (≈ 0.417 µM)

Q: What about the MIC ([6]; Table 15, Ps. intermedius 1264) of the same compound?
A: ≤ 0.03 µg/mL

Q: And the MIC ([6]; Table 15, Ps. intermedius 1524)?
A: 0.25 µg/mL (≈ 0.209 µM)

Q: What about the MIC ([6]; Table 15, Ps. intermedius 1624) of the same compound?
A: 0.5 µg/mL (≈ 0.417 µM)

Q: What about the MIC (Bacteroides vulgatis [7]) of the same compound?
A: 32 µg/mL (≈ 26.7 µM)

Q: And the ED50 (S. pyogenes [8])?
A: 1.4 mg/kg

Q: What about the ED50 (S. pneumoniae) of the same compound?
A: 1.4 mg/kg

Q: And the ED50 (Staph. aureus)?
A: < 0.43 mg/kg

Q: And the MIC (B. thetaiotaomicron; Table 12, 24-hour, B. thetaiotaomicron 1438)?
A: 32 µg/mL (≈ 26.7 µM)

Q: And the MIC (B. thetaiotaomicron; Table 12, 24-hour, B. thetaiotaomicron 1900A)?
A: 128 µg/mL (≈ 107 µM)

Q: And the MIC (B. thetaiotaomicron; Table 14, Bacteroides thetalotaomicron 1438)?
A: 32 µg/mL (≈ 26.7 µM)

Q: And the MIC (Clostridium difficile)?
A: 32 µg/mL (≈ 26.7 µM)

Q: And the “in vivo oral activity” value (S. pyogenes [9])?
A: > 300 mg./kg.X2

Q: And the MIC (Hemophilus influenzae; Table 17, Haemophilus influenzae 251)?
A: 2 µg/mL (≈ 1.67 µM)

Q: What about the MIC (Hemophilus influenzae; Table 17, Haemophilus influenzae Brun) of the same compound?
A: 8 µg/mL (≈ 6.67 µM)

Q: And the MIC (Hemophilus influenzae; Table 18, Haemophilus influenzae 76)?
A: 4 µg/mL (≈ 3.34 µM)

Q: And the MIC (Hemophilus influenzae; Table 18, Haemophilus influenzae 312)?
A: 4 µg/mL (≈ 3.34 µM)

Q: What about the MIC (Hemophilus influenzae; Table 18, Haemophilus influenzae 4842) of the same compound?
A: 4 µg/mL (≈ 3.34 µM)

Q: What about the MIC (Hemophilus influenzae; Table 18, Haemophilus influenzae 16836) of the same compound?
A: 4 µg/mL (≈ 3.34 µM)

Q: And the MIC (Hemophilus influenzae; Table 18, Haemophilus influenzae Bond)?
A: 4 µg/mL (≈ 3.34 µM)

Q: And the MIC (Hemophilus influenzae; Table 18, Haemophilus influenzae C.L.)?
A: 8 µg/mL (≈ 6.67 µM)

Q: What about the MIC (Hemophilus influenzae; Table 18, Haemophilus influenzae Mx366) of the same compound?
A: 4 µg/mL (≈ 3.34 µM)

Q: What about the MIC (Hemophilus influenzae; Table 18, Haemophilus influenzae Mx371) of the same compound?
A: 4 µg/mL (≈ 3.34 µM)

Q: What about the MIC (Bacteroides fragilis; Table 12, 24-hour, B. fragilis 2) of the same compound?
A: 32 µg/mL (≈ 26.7 µM)

Q: What about the MIC (Bacteroides fragilis; Table 12, 24-hour, B. fragilis 9) of the same compound?
A: 32 µg/mL (≈ 26.7 µM)

Q: And the MIC (Bacteroides fragilis; Table 12, 24-hour, B. fragilis 103)?
A: 32 µg/mL (≈ 26.7 µM)

Q: And the MIC (Bacteroides fragilis; Table 12, 24-hour, B. fragilis 104)?
A: 32 µg/mL (≈ 26.7 µM)

Q: And the MIC (Bacteroides fragilis; Table 12, 24-hour, B. fragilis 106)?
A: 32 µg/mL (≈ 26.7 µM)

Q: What about the MIC (Bacteroides fragilis; Table 12, 24-hour, B. fragilis 107) of the same compound?
A: 32 µg/mL (≈ 26.7 µM)

Q: And the MIC (Bacteroides fragilis; Table 12, 24-hour, B. fragilis 108)?
A: 32 µg/mL (≈ 26.7 µM)

Q: What about the MIC (Bacteroides fragilis; Table 12, 24-hour, B. fragilis 110) of the same compound?
A: 64 µg/mL (≈ 53.4 µM)

Q: What about the MIC (Bacteroides fragilis; Table 12, 24-hour, B. fragilis 111) of the same compound?
A: 32 µg/mL (≈ 26.7 µM)

Q: And the MIC (Bacteroides fragilis; Table 12, 24-hour, B. fragilis 112)?
A: 32 µg/mL (≈ 26.7 µM)

Q: What about the MIC (Bacteroides fragilis; Table 12, 24-hour, B. fragilis 113) of the same compound?
A: 32 µg/mL (≈ 26.7 µM)

Q: And the MIC (Bacteroides fragilis; Table 12, 24-hour, B. fragilis 1451)?
A: 64 µg/mL (≈ 53.4 µM)

Q: What about the MIC (Bacteroides fragilis; Table 12, 24-hour, B. fragilis 1470) of the same compound?
A: 64 µg/mL (≈ 53.4 µM)

Q: What about the MIC (Bacteroides fragilis; Table 12, 24-hour, B. fragilis 1877) of the same compound?
A: 32 µg/mL (≈ 26.7 µM)

Q: And the MIC (Bacteroides fragilis; Table 12, 24-hour, B. fragilis 9032)?
A: 32 µg/mL (≈ 26.7 µM)

Q: What about the MIC (Bacteroides fragilis; Table 14, Bacteroides fragilis 111) of the same compound?
A: 64 µg/mL (≈ 53.4 µM)

Q: What about the MIC (Bacteroides fragilis; Table 14, Bacteroides fragilis 1877) of the same compound?
A: 32 µg/mL (≈ 26.7 µM)

Q: What about the MIC (Bacteroides fragilis; Table 14, Bacteroides fragilis 1936B) of the same compound?
A: 32 µg/mL (≈ 26.7 µM)

Q: And the MIC (Fusobacterium symbiosum)?
A: 1.0 µg/mL (≈ 0.834 µM)

Q: What about the MIC (Clostridium perfringens) of the same compound?
A: 0.5 µg/mL (≈ 0.417 µM)

Q: What about the MIC [10] of the same compound?
A: 8 µg/mL (≈ 6.67 µM)

Q: And the Solubility (Solubility in solvents)?
A: soluble in the same solvents as factor A

Q: What about the MIC (Pc. constellatus) of the same compound?
A: 0.5 µg/mL (≈ 0.417 µM)
